Key:
[1] = biological target: 5-hydroxytryptamine receptor 4 (Rattus norvegicus) (UniProt Q62758); experiment: Antagonist activity against 5-HT4 receptor mediated relaxation of rat carbachol contracted esophageal muscularis mucosae; type: functional
[2] = biological target: T1, Type-2 angiotensin II receptor (Homo sapiens, UniProt P50052); experiment: Compound was evaluated for binding affinity against Angiotensin II receptor, type 2 using radioligand binding assay
T1 sequence (P50052 whole entry): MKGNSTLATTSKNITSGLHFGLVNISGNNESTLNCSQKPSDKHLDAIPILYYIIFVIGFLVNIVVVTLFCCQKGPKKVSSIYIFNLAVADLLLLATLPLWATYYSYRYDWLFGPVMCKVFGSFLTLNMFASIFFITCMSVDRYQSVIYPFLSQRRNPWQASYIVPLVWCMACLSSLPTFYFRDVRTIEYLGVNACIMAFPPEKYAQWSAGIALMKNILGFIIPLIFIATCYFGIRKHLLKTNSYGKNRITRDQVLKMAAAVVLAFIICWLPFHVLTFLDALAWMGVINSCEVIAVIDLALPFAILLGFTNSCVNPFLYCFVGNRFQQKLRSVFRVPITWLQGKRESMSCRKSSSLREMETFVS

[3] = biological target: T2, Alpha-1A adrenergic receptor (Homo sapiens, UniProt P35348); experiment: Compound was evaluated for binding affinity against Alpha-1C adrenergic receptor using radioligand binding assay
T2 sequence (P35348 whole entry): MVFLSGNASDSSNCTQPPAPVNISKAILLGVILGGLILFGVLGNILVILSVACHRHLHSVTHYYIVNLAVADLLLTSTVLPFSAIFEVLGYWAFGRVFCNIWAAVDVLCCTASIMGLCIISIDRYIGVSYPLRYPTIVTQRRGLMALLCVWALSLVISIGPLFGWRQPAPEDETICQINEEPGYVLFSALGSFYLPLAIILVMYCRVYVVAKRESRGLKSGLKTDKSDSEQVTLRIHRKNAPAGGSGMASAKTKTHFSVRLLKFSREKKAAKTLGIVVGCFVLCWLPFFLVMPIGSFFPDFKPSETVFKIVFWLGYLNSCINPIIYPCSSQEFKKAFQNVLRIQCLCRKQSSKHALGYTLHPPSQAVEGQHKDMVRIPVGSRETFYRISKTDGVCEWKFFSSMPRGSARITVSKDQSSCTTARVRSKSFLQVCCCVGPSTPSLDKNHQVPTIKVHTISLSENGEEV

[4] = biological target: Muscarinic acetylcholine receptor M3 (Homo sapiens, UniProt P20309); experiment: Compound was evaluated for binding affinity against Muscarinic M3 receptor using radioligand binding assay
[5] = biological target: Serotonin 3 (5-HT3) receptor; experiment: Compound was evaluated for binding affinity against 5-hydroxytryptamine 3 receptor using radioligand binding assay; type: protein-complex assay
[6] = biological target: D(2) dopamine receptor (Homo sapiens, UniProt P14416); experiment: Compound was evaluated for binding affinity against Dopamine D2 receptor using radioligand binding assay
[7] = biological target: 5-hydroxytryptamine receptor 4 (Cavia porcellus, UniProt O70528); experiment: Compound was evaluated for binding affinity against 5-hydroxytryptamine 4 receptor using radioligand binding assay using [3H]GR as radioligand
[8] = Compound was tested for its half-life period at an intravenous dose of 3 ug/kg; type: ADME, organism-based, Sus scrofa; conditions: pig, in vivo, 0.003 mg/kg
[9] = biological target: T3, Alpha-1B adrenergic receptor (Homo sapiens, UniProt P35368); experiment: Compound was evaluated for binding affinity against Alpha-1B adrenergic receptor using radioligand binding assay
T3 sequence (P35368 whole entry): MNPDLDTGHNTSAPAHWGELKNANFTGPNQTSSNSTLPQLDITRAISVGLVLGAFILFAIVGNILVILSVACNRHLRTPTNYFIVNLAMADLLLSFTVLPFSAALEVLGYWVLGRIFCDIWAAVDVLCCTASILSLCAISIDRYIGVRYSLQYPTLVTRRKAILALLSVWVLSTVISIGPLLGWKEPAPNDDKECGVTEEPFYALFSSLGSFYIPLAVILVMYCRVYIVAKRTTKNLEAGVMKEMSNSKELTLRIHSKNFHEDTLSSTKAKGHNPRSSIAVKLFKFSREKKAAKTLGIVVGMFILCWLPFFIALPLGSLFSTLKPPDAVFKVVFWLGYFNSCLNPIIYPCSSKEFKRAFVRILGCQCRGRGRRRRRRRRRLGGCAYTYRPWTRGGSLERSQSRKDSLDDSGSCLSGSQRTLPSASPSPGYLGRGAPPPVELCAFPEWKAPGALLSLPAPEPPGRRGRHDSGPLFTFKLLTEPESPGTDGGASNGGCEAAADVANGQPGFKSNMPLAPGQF

[10] = biological target: T4, 5-hydroxytryptamine receptor 2C (Homo sapiens, UniProt P28335); experiment: Compound was evaluated for binding affinity against 5-hydroxytryptamine 2C receptor using radioligand binding assay
T4 sequence (P28335 whole entry): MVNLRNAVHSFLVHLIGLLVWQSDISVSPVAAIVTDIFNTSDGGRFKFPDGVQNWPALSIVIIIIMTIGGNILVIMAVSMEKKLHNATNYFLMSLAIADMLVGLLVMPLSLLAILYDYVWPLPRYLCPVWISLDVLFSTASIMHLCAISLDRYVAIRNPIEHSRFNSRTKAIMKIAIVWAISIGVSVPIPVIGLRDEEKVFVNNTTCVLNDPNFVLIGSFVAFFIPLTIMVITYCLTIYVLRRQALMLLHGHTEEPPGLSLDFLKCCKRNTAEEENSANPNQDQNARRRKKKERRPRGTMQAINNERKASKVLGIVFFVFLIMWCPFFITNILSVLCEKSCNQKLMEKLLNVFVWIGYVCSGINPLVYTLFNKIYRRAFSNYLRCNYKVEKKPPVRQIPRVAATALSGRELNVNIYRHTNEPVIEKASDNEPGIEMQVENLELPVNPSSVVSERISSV

[11] = system: Sus scrofa; experiment: Antagonism of 5-HT-induced tachycardia in anesthetized, vagotomized Yucatan micropigs at 0.1-30 ug/kg dose administered intraduodenally; type: functional; conditions: intraduodenal, read-out: ID50 (the source's name)
[12] = biological target: D(1A) dopamine receptor (Homo sapiens, UniProt P21728); experiment: Compound was evaluated for binding affinity against Dopamine D1 receptor using radioligand binding assay
[13] = biological target: T5, Muscarinic acetylcholine receptor M1 (Homo sapiens, UniProt P11229); experiment: Compound was evaluated for binding affinity against Muscarinic M1 receptor using radioligand binding assay
T5 sequence (P11229 whole entry): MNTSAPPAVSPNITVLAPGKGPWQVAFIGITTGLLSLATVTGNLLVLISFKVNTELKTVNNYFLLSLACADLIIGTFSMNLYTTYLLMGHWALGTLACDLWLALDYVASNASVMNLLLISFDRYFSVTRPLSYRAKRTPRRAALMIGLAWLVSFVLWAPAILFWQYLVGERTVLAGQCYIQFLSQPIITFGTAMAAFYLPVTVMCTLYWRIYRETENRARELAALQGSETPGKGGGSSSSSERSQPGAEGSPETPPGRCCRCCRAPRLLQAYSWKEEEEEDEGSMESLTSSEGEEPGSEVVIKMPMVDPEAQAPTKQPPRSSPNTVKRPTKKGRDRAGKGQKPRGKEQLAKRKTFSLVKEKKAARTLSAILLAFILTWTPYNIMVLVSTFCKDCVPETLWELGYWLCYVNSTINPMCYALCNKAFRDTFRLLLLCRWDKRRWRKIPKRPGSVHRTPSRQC

[14] = system: Sus scrofa; experiment: Antagonism of 5-HT-induced tachycardia in anesthetized, vagotomized Yucatan micropigs at 0.03-10 ug/kg dose administered intravenously; type: functional; conditions: iv, read-out: ID50 (the source's name)
[15] = biological target: T6, 5-hydroxytryptamine receptor 1A (Mus musculus, UniProt Q64264); experiment: Compound was evaluated for binding affinity against 5-hydroxytryptamine 1A receptor using radioligand binding assay
T6 sequence (Q64264 whole entry): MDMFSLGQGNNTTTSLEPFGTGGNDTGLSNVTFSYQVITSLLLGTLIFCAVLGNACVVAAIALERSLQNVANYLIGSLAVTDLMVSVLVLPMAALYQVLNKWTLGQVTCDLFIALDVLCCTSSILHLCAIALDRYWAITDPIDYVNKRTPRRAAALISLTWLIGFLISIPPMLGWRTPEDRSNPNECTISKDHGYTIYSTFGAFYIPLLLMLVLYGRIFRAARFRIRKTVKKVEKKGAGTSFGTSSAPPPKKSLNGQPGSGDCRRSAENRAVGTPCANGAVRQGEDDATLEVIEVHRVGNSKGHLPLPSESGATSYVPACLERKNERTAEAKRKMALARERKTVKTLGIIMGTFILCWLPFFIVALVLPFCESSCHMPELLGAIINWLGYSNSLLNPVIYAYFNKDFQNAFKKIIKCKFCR

[16] = biological target: T7, Muscarinic acetylcholine receptor M2 (Homo sapiens, UniProt P08172); experiment: Compound was evaluated for binding affinity against Muscarinic M2 receptor using radioligand binding assay
T7 sequence (P08172 whole entry): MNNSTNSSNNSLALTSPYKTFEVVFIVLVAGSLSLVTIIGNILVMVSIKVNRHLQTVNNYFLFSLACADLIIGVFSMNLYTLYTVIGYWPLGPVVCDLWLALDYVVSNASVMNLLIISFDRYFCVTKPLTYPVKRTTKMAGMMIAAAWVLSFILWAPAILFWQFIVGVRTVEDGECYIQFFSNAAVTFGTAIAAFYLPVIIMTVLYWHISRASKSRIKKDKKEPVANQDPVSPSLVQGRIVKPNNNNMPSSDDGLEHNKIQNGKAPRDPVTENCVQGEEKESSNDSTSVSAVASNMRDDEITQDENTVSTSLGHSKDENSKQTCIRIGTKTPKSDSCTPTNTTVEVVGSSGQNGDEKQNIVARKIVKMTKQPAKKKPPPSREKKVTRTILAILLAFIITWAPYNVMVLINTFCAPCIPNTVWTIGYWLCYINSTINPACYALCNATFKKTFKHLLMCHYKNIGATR

[17] = biological target: 5-hydroxytryptamine receptor 2A (Homo sapiens, UniProt P28223); experiment: Compound was evaluated for binding affinity against 5-hydroxytryptamine 2A receptor using radioligand binding assay
[18] = biological target: T8, Alpha-2B adrenergic receptor (Homo sapiens, UniProt P18089); experiment: Compound was evaluated for binding affinity against Alpha-2B adrenergic receptor using radioligand binding assay
T8 sequence (P18089 whole entry): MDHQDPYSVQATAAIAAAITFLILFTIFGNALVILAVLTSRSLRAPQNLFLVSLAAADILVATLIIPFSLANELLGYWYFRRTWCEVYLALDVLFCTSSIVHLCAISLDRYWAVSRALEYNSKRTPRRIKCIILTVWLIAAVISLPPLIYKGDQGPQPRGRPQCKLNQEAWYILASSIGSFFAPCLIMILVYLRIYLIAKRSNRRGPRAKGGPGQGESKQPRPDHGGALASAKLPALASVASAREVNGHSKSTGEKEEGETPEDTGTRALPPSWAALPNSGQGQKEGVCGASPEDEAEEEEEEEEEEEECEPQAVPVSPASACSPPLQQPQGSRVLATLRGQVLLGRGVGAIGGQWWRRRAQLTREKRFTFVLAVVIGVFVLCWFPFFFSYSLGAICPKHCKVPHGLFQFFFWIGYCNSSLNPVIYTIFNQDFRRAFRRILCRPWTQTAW

[19] = biological target: T9, Type-1 angiotensin II receptor (Homo sapiens, UniProt P30556); experiment: Compound was evaluated for binding affinity against Angiotensin II receptor, type 1 using radioligand binding assay
T9 sequence (P30556 whole entry): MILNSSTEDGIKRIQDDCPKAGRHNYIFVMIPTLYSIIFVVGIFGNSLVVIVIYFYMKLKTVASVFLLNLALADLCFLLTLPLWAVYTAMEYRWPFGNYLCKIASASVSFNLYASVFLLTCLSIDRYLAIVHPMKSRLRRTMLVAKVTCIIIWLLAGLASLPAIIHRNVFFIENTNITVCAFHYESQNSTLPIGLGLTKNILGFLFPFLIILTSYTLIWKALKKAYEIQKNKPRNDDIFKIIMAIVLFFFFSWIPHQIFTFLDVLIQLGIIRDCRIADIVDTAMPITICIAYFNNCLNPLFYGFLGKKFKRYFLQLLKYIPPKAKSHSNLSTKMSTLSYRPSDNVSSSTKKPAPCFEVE

[20] = biological target: T10, Alpha-2A adrenergic receptor (Homo sapiens, UniProt P08913); experiment: Compound was evaluated for binding affinity against Alpha-2A adrenergic receptor using radioligand binding assay
T10 sequence (P08913 whole entry): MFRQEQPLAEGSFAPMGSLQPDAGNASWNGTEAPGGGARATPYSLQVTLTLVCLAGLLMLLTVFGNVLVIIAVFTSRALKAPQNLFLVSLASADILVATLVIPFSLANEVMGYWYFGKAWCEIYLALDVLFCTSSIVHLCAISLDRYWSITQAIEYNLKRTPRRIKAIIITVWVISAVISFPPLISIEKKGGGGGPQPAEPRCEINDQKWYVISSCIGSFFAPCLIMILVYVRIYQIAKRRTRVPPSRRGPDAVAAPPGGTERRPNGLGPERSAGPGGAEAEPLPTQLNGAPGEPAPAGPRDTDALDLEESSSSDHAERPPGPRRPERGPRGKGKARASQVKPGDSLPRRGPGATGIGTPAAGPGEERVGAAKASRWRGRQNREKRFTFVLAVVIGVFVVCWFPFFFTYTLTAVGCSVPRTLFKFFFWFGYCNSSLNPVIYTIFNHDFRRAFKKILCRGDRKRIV

Sequence of 5-hydroxytryptamine receptor 4 (Rattus norvegicus) (Q62758 whole entry): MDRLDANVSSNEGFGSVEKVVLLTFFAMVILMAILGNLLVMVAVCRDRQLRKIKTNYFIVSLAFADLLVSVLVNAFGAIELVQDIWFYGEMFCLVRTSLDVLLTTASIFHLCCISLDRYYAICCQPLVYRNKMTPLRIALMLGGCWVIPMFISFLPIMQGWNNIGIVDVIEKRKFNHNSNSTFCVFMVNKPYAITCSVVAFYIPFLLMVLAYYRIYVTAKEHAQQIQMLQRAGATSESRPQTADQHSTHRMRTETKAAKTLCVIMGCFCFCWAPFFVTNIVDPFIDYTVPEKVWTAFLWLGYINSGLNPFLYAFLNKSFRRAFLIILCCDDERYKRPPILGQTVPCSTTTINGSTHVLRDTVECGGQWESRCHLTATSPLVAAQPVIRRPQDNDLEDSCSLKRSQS
Sequence of D(1A) dopamine receptor (P21728 whole entry): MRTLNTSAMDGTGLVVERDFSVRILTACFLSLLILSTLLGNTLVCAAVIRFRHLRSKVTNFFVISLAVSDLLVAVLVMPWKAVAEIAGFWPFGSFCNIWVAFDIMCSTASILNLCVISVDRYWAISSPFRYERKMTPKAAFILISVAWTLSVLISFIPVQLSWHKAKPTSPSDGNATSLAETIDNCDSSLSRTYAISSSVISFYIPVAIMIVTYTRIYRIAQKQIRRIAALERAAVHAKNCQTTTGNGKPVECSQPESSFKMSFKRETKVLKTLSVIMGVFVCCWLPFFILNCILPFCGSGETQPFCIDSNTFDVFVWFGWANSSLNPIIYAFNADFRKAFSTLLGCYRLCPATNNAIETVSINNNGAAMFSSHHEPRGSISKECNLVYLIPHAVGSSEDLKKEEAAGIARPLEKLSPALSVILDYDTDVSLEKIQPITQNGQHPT
Sequence of Muscarinic acetylcholine receptor M3 (P20309 whole entry): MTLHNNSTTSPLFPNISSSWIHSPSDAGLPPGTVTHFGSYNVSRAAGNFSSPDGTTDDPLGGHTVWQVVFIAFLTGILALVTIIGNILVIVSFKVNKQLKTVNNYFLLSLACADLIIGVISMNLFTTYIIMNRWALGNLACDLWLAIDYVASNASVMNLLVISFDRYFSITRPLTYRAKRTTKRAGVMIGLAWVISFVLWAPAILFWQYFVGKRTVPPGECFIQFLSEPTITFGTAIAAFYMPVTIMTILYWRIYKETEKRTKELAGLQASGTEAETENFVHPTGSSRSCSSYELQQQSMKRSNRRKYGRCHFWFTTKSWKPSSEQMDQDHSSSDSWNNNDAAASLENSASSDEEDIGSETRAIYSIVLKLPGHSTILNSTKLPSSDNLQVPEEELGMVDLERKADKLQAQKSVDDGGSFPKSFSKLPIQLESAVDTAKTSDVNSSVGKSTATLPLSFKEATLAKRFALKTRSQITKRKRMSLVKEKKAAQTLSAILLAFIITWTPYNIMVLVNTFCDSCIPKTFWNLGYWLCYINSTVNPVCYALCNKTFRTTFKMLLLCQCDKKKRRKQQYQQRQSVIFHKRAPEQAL
Sequence of D(2) dopamine receptor (P14416 whole entry): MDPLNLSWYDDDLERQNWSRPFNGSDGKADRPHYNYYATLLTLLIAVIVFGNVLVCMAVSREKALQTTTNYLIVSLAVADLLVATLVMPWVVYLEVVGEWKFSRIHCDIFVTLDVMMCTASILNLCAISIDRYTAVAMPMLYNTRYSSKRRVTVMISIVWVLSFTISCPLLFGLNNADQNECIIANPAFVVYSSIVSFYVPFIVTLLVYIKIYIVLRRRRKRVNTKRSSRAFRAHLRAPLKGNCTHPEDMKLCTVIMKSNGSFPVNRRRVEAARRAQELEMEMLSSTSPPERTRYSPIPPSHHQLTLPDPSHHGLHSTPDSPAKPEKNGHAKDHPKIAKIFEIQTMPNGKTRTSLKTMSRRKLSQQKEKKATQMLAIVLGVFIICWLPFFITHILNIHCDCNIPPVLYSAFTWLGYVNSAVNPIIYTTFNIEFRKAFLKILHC
Sequence of 5-hydroxytryptamine receptor 4 (O70528 whole entry): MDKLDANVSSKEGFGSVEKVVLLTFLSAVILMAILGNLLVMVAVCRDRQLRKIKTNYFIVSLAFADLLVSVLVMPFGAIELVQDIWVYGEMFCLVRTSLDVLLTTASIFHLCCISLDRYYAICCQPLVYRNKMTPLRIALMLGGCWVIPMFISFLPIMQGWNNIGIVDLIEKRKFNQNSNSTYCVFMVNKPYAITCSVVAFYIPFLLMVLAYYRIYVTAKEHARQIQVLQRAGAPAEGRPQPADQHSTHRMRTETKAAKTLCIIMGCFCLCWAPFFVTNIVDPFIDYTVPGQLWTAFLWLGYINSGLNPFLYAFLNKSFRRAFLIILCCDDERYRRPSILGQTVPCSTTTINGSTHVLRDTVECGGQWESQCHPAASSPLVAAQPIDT
Sequence of 5-hydroxytryptamine receptor 2A (P28223 whole entry): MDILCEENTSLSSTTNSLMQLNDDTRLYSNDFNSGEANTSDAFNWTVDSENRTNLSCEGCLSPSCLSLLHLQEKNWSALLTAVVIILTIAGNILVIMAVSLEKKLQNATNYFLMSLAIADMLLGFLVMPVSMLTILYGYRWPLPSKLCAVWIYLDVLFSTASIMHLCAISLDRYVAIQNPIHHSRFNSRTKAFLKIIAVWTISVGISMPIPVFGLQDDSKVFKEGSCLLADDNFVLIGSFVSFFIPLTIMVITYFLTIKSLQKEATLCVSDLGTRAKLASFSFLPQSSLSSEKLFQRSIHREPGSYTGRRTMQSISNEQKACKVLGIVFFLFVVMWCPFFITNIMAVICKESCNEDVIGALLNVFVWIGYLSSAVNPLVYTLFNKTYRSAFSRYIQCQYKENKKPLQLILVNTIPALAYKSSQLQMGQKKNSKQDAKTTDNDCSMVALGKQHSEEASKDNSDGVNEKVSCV

SMILES: COc1ccc(CCCN2CCC(CCC(=O)c3cc(Cl)c(N)c4c3OCCO4)CC2)cc1
- pKb [1]: 10.6

SMILES: CS(=O)(=O)NCCN1CCC(CCC(=O)c2cc(Cl)c(N)c3c2OCCO3)CC1
- pKb [1]: 9.9

SMILES: COc1ccc(CCCN2CCC(CCC(=O)c3cc(Cl)c(N)c4c3OCCO4)CC2)cc1OC
- Ki [2]: > 10000 nM
- Ki [3]: 316 nM
- Ki [4]: 2000 nM
- Log Ki [5]: -6.3
- Ki [6]: 316 nM
- Ki [7]: 0.1 nM
- half-life [8]: > 6 h
- Ki [9]: 501 nM
- Ki [10]: 1580 nM
- ED50 [11]: 1.52 µg/kg
- Ki [12]: > 10000 nM
- Ki [13]: 1580 nM
- ED50 [14]: 0.55 µg/kg
- Ki [15]: 1000 nM
- Ki [16]: 1260 nM
- Ki [17]: 501 nM
- Ki [18]: 2510 nM
- Ki [19]: > 10000 nM
- Ki [20]: 100 nM

SMILES: Cn1cc(C(=O)OCC2CCN(CCNS(C)(=O)=O)CC2)c2ccccc21
- pKb [1]: 9

From ChEMBL document CHEMBL1153669, “Rs-100235: A high affinity 5-HT4 receptor antagonist” (Bioorg Med Chem Lett, 1995)
